Where a name gives a salt, the structure may show the parent alone.
Biological target: T1, recombinant guanylate cyclase reporter cell line (Rattus norvegicus, UniProt P19686+P20595)
T1 construct: expressed in transfected cells
T1 sequence (P19686 1-690): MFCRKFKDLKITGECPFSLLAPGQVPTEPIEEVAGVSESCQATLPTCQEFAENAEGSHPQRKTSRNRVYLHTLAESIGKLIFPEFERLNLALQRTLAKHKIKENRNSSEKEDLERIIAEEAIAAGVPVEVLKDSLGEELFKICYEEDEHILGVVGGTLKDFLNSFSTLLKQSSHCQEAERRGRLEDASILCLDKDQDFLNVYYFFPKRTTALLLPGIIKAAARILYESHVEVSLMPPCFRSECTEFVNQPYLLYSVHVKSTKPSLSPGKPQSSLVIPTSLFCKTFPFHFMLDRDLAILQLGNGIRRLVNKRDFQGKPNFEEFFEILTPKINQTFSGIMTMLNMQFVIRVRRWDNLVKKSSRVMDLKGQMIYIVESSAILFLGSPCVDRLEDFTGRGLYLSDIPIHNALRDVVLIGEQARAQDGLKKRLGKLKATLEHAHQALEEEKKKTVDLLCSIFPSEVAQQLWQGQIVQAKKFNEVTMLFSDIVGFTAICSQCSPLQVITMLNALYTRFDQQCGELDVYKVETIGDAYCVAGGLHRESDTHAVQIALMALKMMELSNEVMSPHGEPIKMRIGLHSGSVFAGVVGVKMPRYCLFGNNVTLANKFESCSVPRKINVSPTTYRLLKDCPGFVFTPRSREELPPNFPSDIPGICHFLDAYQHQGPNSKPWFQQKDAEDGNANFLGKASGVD
T1 sequence (P20595 1-619): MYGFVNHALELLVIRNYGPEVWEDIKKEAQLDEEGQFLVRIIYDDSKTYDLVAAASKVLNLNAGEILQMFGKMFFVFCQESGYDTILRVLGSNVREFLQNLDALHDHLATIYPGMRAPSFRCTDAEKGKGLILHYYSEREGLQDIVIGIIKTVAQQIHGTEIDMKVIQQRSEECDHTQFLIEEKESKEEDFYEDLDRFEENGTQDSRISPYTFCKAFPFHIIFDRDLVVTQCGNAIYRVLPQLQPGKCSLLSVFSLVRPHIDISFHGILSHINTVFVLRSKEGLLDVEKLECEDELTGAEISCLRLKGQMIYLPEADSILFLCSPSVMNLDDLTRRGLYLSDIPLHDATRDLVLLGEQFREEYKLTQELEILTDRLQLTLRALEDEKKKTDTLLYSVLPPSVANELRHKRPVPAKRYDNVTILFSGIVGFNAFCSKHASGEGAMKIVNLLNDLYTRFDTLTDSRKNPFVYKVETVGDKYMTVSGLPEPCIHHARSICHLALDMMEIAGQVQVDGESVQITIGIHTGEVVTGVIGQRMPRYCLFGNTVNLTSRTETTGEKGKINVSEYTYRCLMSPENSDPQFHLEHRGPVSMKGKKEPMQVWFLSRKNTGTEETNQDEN
Test: Effect on a recombinant guanylate cyclase reporter cell line
Format: cell-based
Details: MEC = minimum effective concentration; in some cases mean values for individual determinations
Protocol: B-2. Effect on a Recombinant Guanylate Cyclase Reporter Cell Line
The cellular action of the compounds of the invention is determined using a recombinant guanylate cyclase reporter cell line, as described in F. Wunder et al., Anal. Biochem. 339, 104-112 (2005).
Representative MEC values (MEC=minimum effective concentration) for the compounds of the invention are shown in the table below (in some cases as mean values for individual determinations): […]

SMILES	MEC [µM]
Cc1nc2c(OCC3CCCCC3)nccn2c1C(=O)NCc1ccc(F)c(F)c1 [Example 47, 8-(Cyclohexylmethoxy)-N-(3,4-difluorobenzyl)-2-methylimidazo[1,2-a]pyrazine-3-carboxamide]	1.0
Cc1nc2c(OCC3CCC3)nccn2c1C(=O)NCc1ccc(F)c(F)c1 [Example 48, 8-(Cyclobutylmethoxy)-N-(3,4-difluorobenzyl)-2-methylimidazo[1,2-a]pyrazine-3-carboxamide]	3.0
Cc1cn2c(C(=O)NCCCCCC#N)c(C)nc2c(OCc2c(F)cccc2F)n1 [Example 49, N-(5-Cyanopentyl)-8-[(2,6-difluorobenzyl)oxy]-2,6-dimethylimidazo[1,2-a]pyrazine-3-carboxamide]	1.0
C=CCONC(=O)c1c(C)nc2c(OCc3c(F)cccc3F)nc(C)cn12 [Example 51, N-(allyloxy)-8-[(2,6-difluorobenzyl)oxy]-2,6-dimethylimidazo[1,2-a]pyrazine-3-carboxamide trifluoroacetate]	3.0
Cc1cn2c(C(=O)NNc3ccc(F)cc3)c(C)nc2c(OCc2c(F)cccc2F)n1 [Example 52, 8-[(2,6-difluorobenzyl)oxy]-N′-(4-fluorophenyl)-2,6-dimethylimidazo[1,2-a]pyrazine-3-carbohydrazide]	0.3
Cc1cn2c(C(=O)NNC(=O)CN(C)C)c(C)nc2c(OCc2c(F)cccc2F)n1 [Example 53, 8-[(2,6-difluorobenzyl)oxy]-N′-[(dimethylamino)acetyl]-2,6-dimethylimidazo[1,2-a]pyrazine-3-carbohydrazide]	3.0

— patent US20160176880A1, “SUBSTITUTED IMIDAZO[1,2-A]PYRAZINECARBOXAMIDES AND USE THEREOF” (BAYER PHARMA AKTIENGESELLSCHAFT, priority 2013, published 2016)
